According to patent US6531453B1, “NKT cell activators containing α-glycosylceramides” (Kirin Beera Kabushiki Kaisha, priority 1997, dated 2003):

Experiments:
NOD/ShiJic (NOD) mice = assay: Suppression of spontaneous diabetes onset in NOD mice; format: in vivo, mouse; conditions: 100 μg/kg i.p. twice a week from 7 weeks of age; control 80%, FIG. 7
Procedure: Ten animals per group of NOD/ShiJic (NOD) mice (6-week-old, females) (Japan Clea, Inc.) were used for the following experiment. […] The animals were divided into two groups, i.e., one group to which 100 μg/kg of KRN 7000 were intraperitoneally administered twice a week starting from 7-weeks of age, and an untreated control group. The presence and absence of diabetic symptoms was examined every week. The blood glucose level was measured using a glucometer (Miles Sankyo), and mice showing the value of more than 200 mg/dL twice consecutively were diagnosed to be diabetic.

[1] = system: 4% DSS-induced mouse colitis (CDF1 mice); assay: Suppression of 4% DSS-induced mouse colitis; format: in vivo; conditions: KRN 7000 100 μg/kg i.p. days 1, 5, 9, IL-12 1 μg/mouse i.p. days 1, 3, 5, 7, 9
Procedure: Ten animals per group of CDF1 mice (6 weeks of age, females) (Japan SLC Inc.) were used for the following experiment. Day 0 was defined as the day when a 4% DSS solution (4% (w/v) dextran sodium sulfate (DSS) dissolved in water) was first provided as drinking water. The animals were divided into 3 groups, i.e., a group to which 100 μg/kg of KRN 7000 were intraperitoneally administered on days 1, 5, and 9, a group to which 1 μg/mouse of IL-12 was intraperitoneally administered on days 1, 3, 5, 7 and 9, and an untreated (control) group. Body weight was measured and survival or death of the animals were observed daily. Changes in body weight and survival rate are shown in FIG. 5A and 5B, respectively.

Vα24+ NKT cells = assay: Stimulation of Vα24+ NKT cell proliferation, autologous mixed leukocyte reaction with treated antigen-presenting cells; format: cell-based, human; conditions: antigen-presenting cells treated with 100 ng/ml, FIG. 9
Procedure: Peripheral blood mononuclear cells of a normal human were cultured for 4 days in an AIM medium supplemented with 10% FCS with the addition of GM-CSF (400 U/ml), IL-4 (200 U/ml) and KRN 7000 (100 ng/ml) to prepare antigen-presenting cells.
An autologous mixed leukocyte reaction (MLR) was performed using these antigen-presenting cells as stimulator cells and autologous peripheral blood mononuclear cells as responder cells. After incubation for 10 days, IL-2 (5 U/ml) was added, incubation was continued for another 4 days, and the cells were harvested. Next, CD4, CD8 double negative cells were recovered from these harvested cells and subjected to the phenotype analysis. The phenotypic analysis was expressed by fluorescence intensity of labeled antibodies against cells having various phenotypes.
The cells were cultured using IL-2 (5 U/ml) to stimulate the proliferation of Vα24^+ NKT cells, which were used as responder cells in the following autologous mixed leukocyte reaction. Autologous peripheral blood mononuclear cells were cultured for 4 days with the addition of GM-CSF +IL-4 and 100 ng/ml of KRN 7000, AGL-583 (β-galactosylceramide, β-GalCer) or 0.1% DMSO (vehicle) to prepare antigen-presenting cells. An autologous mixed leukocyte reaction was carried out using these antigen-presenting cells as stimulator cells. […]

[2] = system: Vα14+ NKT-deficient (Jα281KO) mice; assay: Induction of abortion in Vα14+ NKT-deficient (Jα281KO) mice; format: in vivo, mouse; conditions: same amount, same manner, PBS group 5.0%
Procedure: C57BL/6 mice (Japan SLC) were used for the following experiment. The day when a vaginal plug was observed was defined as day 0. Pregnant mice were divided into 2 groups (6 mice per group), i.e., one group to which 150 μg/kg of KRN 7000 were intravenously administered on days 7, 8 and 9, and another to which PBS (phosphate-buffered saline) was administered in the same way. On day 12, the uterus was removed to observe the state of the embryo.
When the same amount of KRN 7000 was administered to Vα14^+ NKT-deficient (Jα281KO) mice (Kawano, T. et al., Science, 278, 1626-1629 (1997)) in the same manner, the abortion rate was 5.3%, which was equivalent to that for the PBS-administered group (5.0%). The Vα14^+ NKT-deficient mice are available from Masaru Taniguchi, School of Medicine, Chiba University.

Vα14+ NKT cells = assay: Stimulation of spleen NKT cell proliferation in C57BL/6 mice (3-color FACS analysis); format: in vivo, mouse
Procedure: A vehicle (physiological saline solution containing 0.5% Polysolvate 20) or 1, 10 or 100 ng/kg of KRN 7000 was intravenously administered to C57BL/6 mice (Japan SLC, Inc.), and the spleen of individual mice was taken out after 24 hours to prepare spleen cells by conventional methods. These spleen cells were incubated in a plastic dish for 30 minutes to prepare nonadherent cells. By removing B cells in this nonadherent cells, a lymphocyte fraction was prepared. T cells, NK cells, NKT cells and Vα14^+ NKT cells in this fraction were analyzed by the 3-color FACS analysis using the FITC-labeled anti-TCR αβ monoclonal antibody (Pharmingen), cychrome-labeled anti-NK1.1 monoclonal antibody (Pharmingen) and PE-labeled anti-Vα14 monoclonal antibody (FIG. 2). The anti-Vα14 monoclonal antibody was obtained by implanting anti-Vα14 monoclonal antibody producing hybridomas (CMS-1; available from Masaru Taniguchi et al, School of Medicine, Chiba University) in nude mice and recovering ascites from the animals to purify the antibody. In FIGS. 2A and 2B, the numbers of NK1.1 cells, TCRαβ cells and […] in the lymphocyte fraction were expressed as fluorescence intensity of the labeled antibodies against these cells.

[3] = spleen, i.v., 24 hours, FIG. 2C

CCCCCCCCCCCCCCCCCCCCCCCCCC(=O)N[C@@H](CO[C@H]1O[C@H](CO)[C@H](O)[C@H](O)[C@H]1O)[C@H](O)[C@H](O)CCCCCCCCCCCCCC [KRN 7000, (2S,3S,4R)-1-(α-D-galactopyranosyloxy)-2-hexacosanoylamino-3,4-octadecanediol]
mice that became diabetic at the age of 35 weeks (NOD/ShiJic (NOD) mice): none | time of weight loss as compared with the control group ([1]; FIG. 5A): at a later period | survival period as compared with the control group ([1]; FIG. 5B): significantly longer | effect of treated antigen presenting cells on Vα24+ NKT cell proliferation ([3H]thymidine uptake) (Vα24+ NKT cells): marked stimulative effect | abortion rate [2]: 5.3% | rate of NK1.1+ TCRαβ cells in the spleen lymphocyte fraction vs vehicle (Vα14+ NKT cells; 100 ng/kg i.v., 24 hours, FIG. 2A): marked increase | rate of Vβ14+ cells in NK1.1+ TCRβα+ cells vs vehicle (Vα14+ NKT cells; 100 ng/kg i.v., 24 hours, FIG. 2B): increase | numbers of NK cells in the spleen lymphocyte fractions (Vα14+ NKT cells; 10 or 100 ng/kg i.v., 24 hours, FIG. 2C): equal to those from the vehicle-administered mice | increase in numbers of Vα14+ NKT cells in the spleen lymphocyte fraction vs vehicle (Vα14+ NKT cells; i.v., 24 hours, FIG. 2C): more than four times | increase in numbers of Vα14− NKT cells in the spleen lymphocyte fraction vs vehicle (Vα14+ NKT cells; i.v., 24 hours, data not shown): more than three times | numbers of Vα14+ cells in the liver (Vα14+ NKT cells; liver, data not shown): marked increase | numbers of Vα14− NKT cells in the liver (Vα14+ NKT cells; liver, data not shown): marked increase | increase in the numbers of T cells vs vehicle-administered mice (Vα14+ NKT cells; [3]): about 2 fold | increase in the numbers of lymphocyte fractions vs vehicle-administered mice (Vα14+ NKT cells; [3]): about 2 fold
